Molecular target: PfHRPII HT-GFP (HT/RLLYE-GFP)
Type: binding, Plasmodium falciparum

PI(3)P
Kd: > 5 µM

Source: article PMC3268671 (Cell, 2012)
